Measurements reported in US20040076974A1, “Liver necrosis predictive genes” (priority 2002, published 2004).
Values joined by “and” are separate entries in the source; they are usually repeats but may differ in a detail not shown here. Identical values can stand only once. Like-named read-outs stand apart in the source and are kept apart here.

Test system: toxicologically relevant rat genes (rat CT array)
[1] = 24 h, dose 20, ratio treatment/control, listed as PBARB
[2] = 24 h, dose 80, ratio treatment/control, listed as PBARB

`CCC1(c2ccccc2)C(=O)NC(=O)NC1=O` [phenobarbital] was tested, and the 3-hydroxyisobutyrate dehydrogenase [1] was 1.08 and 1.006, the 14-3-3 zeta [1] was 1.208 and 1.207 and the “17-beta hydroxysteroid dehydrogenase, type 2” value [1] was 1.581 and 1.324. For the same molecule, the “60S ribosomal protein L6” value [1] was 1.352 and 1.202, the “ATPase inhibitor (rat mitochondrial IF1 protein)” value [1] was 0.6195 and 0.719 and the “Alpha 1 - inhibitor III” value [1] was 0.5583 and 0.815. The Alpha-2-macroglobulin [1] was 0.7668 and 0.9845, the “Bax (alpha)” value [1] was 1.204 and 1.029 and the Beta-actin [1] was 1.31 and 1.008. For the same molecule, the “Calpactin I heavy chain” value [1] was 1.101 and 1.191, the “Carbamyl phosphate synthetase I” value [1] was 0.7852 and 0.892 and the “Carbonic anhydrase III” value [1] was 0.977 and 0.617. The Carbonyl reductase [1] was 0.9613 and 0.916, the “Cathepsin L, sequence 2” value [1] was 1.563 and 1.367 and the Cofilin [1] was 0.9117. The “Cyclin G” value [1] was 1, the DNA polymerase beta [1] was 1.056 and the “Dynamin-1 (D100)” value [1] was 0.8477 and 0.8322. The “Endogenous retroviral sequence, 5′ and 3′ LTR” value [1] was 0.9945 and 0.7515, the Enolase alpha [1] was 1.238 and 0.9827 and the Epidermal growth factor [1] was 0.8761 and 0.9811. For the same molecule, the “Equilbrative nitrobenzylthioinosine-sensitive nucleoside transporter” value [1] was 1.018 and 0.7905, the “Extracellular-signal-regulated kinase 1” value [1] was 1.131 and 0.7366 and the Fas antigen [1] was 1.246 and 1.226. The Gadd45 [1] was 1.009 and 1.065, the Gadd153 [1] was 1.013 and 1.011 and the “Gamma-actin, cytoplasmic” value [1] was 1.054 and 0.8811. For the same molecule, the “Glucose-regulated protein 78” value [1] was 1.261 and 1.059, the Heme oxygenase [1] was 0.9438 and 0.9315 and the Hepatic lipase [1] was 0.6998 and 0.9047. For the same molecule, the ID-1 [1] was 0.8693 and 1.008, the IgE binding protein [1] was 0.8925 and 0.9114 and the IkB-a [1] was 1.305 and 0.9599. The “Insulin-like growth factor I” value [1] was 0.7485 and 0.9327, the “Insulin-like growth factor binding protein 1” value [1] was 1.727 and 1.357 and the “Insulin-like growth factor binding protein 3” value [1] was 0.8872 and 0.9985. For the same molecule, the “Integrin beta1” value [1] was 1.272 and 1.092, the L-gulono-gamma-lactone oxidase [1] was 1.051 and 0.8183 and the “Liver fatty acid binding protein” value [1] was 1.109 and 1.478. For the same molecule, the MAP kinase kinase [1] was 1.185, the “Macrophage inflammatory protein-2 alpha” value [1] was 1.188 and 1.009 and the “Matrin F/G” value [1] was 1.181 and 1.074. For the same molecule, the “Matrix metalloproteinase-1” value [1] was 1.164, the “Melanoma-associated antigen ME491” value [1] was 0.9925 and 1.119 and the “Monocyte chemotactic protein receptor (CCR2)” value [1] was 1.134. The “Multidrug resistant protein-2” value [1] was 1.635 and 1.128, the “N-hydroxy-2-acetylaminofluorene sulfotransferase (ST1C1)” value [1] was 0.9899 and 0.8091 and the “Organic anion transporter 3” value [1] was 1.248 and 1.132. The “Organic cation transporter 3” value [1] was 1.276 and 1.184, the Ornithine decarboxylase [1] was 1.253 and 1.099 and the PAR interacting protein [1] was 1.254 and 1.247. For the same molecule, the “Phase-1 RCT 252” value [1] was 0.9399, the “Phase-1 RCT-15” value [1] was 1.589 and the “Phase-1 RCT-33” value [1] was 1.471. The “Phase-1 RCT-36” value [1] was 1.441, the “Phase-1 RCT-39” value [1] was 1.098 and 0.9997 and the “Phase-1 RCT-48” value [1] was 0.8561. For the same molecule, the “Phase-1 RCT-49” value [1] was 0.9102, the “Phase-1 RCT-50” value [1] was 1.003 and 0.9822 and the “Phase-1 RCT-83” value [1] was 0.8335. For the same molecule, the “Phase-1 RCT-88” value [1] was 0.963, the “Phase-1 RCT-102” value [1] was 0.6239 and the “Phase-1 RCT-117” value [1] was 0.7039. The “Phase-1 RCT-123” value [1] was 0.9541, the “Phase-1 RCT-127” value [1] was 0.7569 and the “Phase-1 RCT-128” value [1] was 0.7394 and 0.7417. For the same molecule, the “Phase-1 RCT-137” value [1] was 0.7926, the “Phase-1 RCT-179” value [1] was 0.8634 and 0.9704 and the “Phase-1 RCT-181” value [1] was 0.9556. For the same molecule, the “Phase-1 RCT-182” value [1] was 0.8988, the “Phase-1 RCT-189” value [1] was 0.9743 and the “Phase-1 RCT-191” value [1] was 1.518 and 1.291. For the same molecule, the “Phase-1 RCT-213” value [1] was 1.105, the “Phase-1 RCT-239” value [1] was 0.8651 and the “Phase-1 RCT-242” value [1] was 0.9504. The “Phase-1 RCT-256” value [1] was 0.9833, the “Phase-1 RCT-258” value [1] was 1.096 and the “Phase-1 RCT-264” value [1] was 0.5841. The “Phase-1 RCT-288” value [1] was 0.674, the “Proliferating cell nuclear antigen gene” value [1] was 1.31 and 0.9115 and the “Ribosomal protein L13A” value [1] was 1.101 and 1.176. The “Ribosomal protein S8” value [1] was 1.41 and 1.396, the “Senescence marker protein-30” value [1] was 0.7967 and 0.7544 and the Sodium/bile acid cotransporter [1] was 1.606 and 1.619. The “Superoxide dismutase Mn” value [1] was 1.251 and 1.032, the “Thymosin beta-10” value [1] was 1.095 and the Transthyretin [1] was 0.579 and 0.7326. For the same molecule, the “Ubiquitin conjugating enzyme (RAD 6 homologue)” value [1] was 1.219 and 1.207, the “Uncoupling protein 2” value [1] was 1.028 and 0.9917 and the Zinc finger protein [1] was 1.033 and 1.014. The c-jun [1] was 0.8724 and 0.8417, the c-myc [1] was 1.263 and 0.7701 and the p53 [1] was 1.141 and 1.123. For the same molecule, the “{Ribosomal protein L6}” value [1] was 1.13 and 0.9995, the 3-hydroxyisobutyrate dehydrogenase [2] was 0.9364 and 1.012 and 0.9868 and the 14-3-3 zeta [2] was 1.349 and 1.439 and 1.37. The “17-beta hydroxysteroid dehydrogenase, type 2” value [2] was 0.7562 and 0.7908 and 0.9571, the “60S ribosomal protein L6” value [2] was 1.307 and 1.425 and the “ATPase inhibitor (rat mitochondrial IF1 protein)” value [2] was 0.6848 and 0.7077 and 0.6801. The “Aldehyde dehydrogenase, microsomal” value [2] was 1.087 and 1.048, the “Alpha 1 - inhibitor III” value [2] was 0.5856 and 0.4905 and 0.5622 and the Alpha-2-macroglobulin [2] was 0.9113 and 0.8593 and 0.9766. For the same molecule, the “Bax (alpha)” value [2] was 1.058 and 1.091 and 1.122, the Beta-actin [2] was 1.224 and 1.246 and 1.145 and the “Calpactin I heavy chain” value [2] was 1.134 and 1.063. For the same molecule, the “Carbamyl phosphate synthetase I” value [2] was 0.8575 and 0.7797 and 0.7692, the Carbonyl reductase [2] was 1.059 and 1.125 and 0.962 and the “Cathepsin L, sequence 2” value [2] was 1.574 and 1.633. For the same molecule, the Cofilin [2] was 0.9114 and 0.8537 and 0.8627, the “Cyclin G” value [2] was 1.002 and 1.066 and 1.079 and the DNA polymerase beta [2] was 1.046 and 1.107. For the same molecule, the “Dynamin-1 (D100)” value [2] was 0.9128 and 0.9717 and 0.9326, the “Endogenous retroviral sequence, 5′ and 3′ LTR” value [2] was 1.21 and 0.7011 and 0.7797 and the Enolase alpha [2] was 1.121 and 1.118 and 1.149. For the same molecule, the Epidermal growth factor [2] was 1.003 and 1.092 and 1.144, the “Equilbrative nitrobenzylthioinosine-sensitive nucleoside transporter” value [2] was 0.9518 and 0.8269 and 0.9012 and the “Extracellular-signal-regulated kinase 1” value [2] was 1.5 and 1.071 and 0.8668. For the same molecule, the Fas antigen [2] was 1.331 and 1.404 and 1.329, the Gadd45 [2] was 1.044 and 0.9552 and 1.022 and the Gadd153 [2] was 1.008 and 0.989 and 0.9738. For the same molecule, the “Gamma-actin, cytoplasmic” value [2] was 1.252 and 1.167 and 1.207, the “Glucose-regulated protein 78” value [2] was 1.679 and 1.668 and 1.487 and the Heme oxygenase [2] was 0.7677 and 0.7554 and 0.8649. For the same molecule, the Hepatic lipase [2] was 0.7302 and 1.208 and 0.6736, the ID-1 [2] was 1.015 (2×) and 0.9098 and the IgE binding protein [2] was 0.9374 and 0.898. For the same molecule, the IkB-a [2] was 1.024 and 1.103 and 1.096, the “Insulin-like growth factor I” value [2] was 0.6186 and 0.52 and 0.7677 and the “Insulin-like growth factor binding protein 1” value [2] was 1.514 and 1.628. The “Insulin-like growth factor binding protein 3” value [2] was 0.6158 and 0.8747, the “Integrin beta1” value [2] was 1.29 and 1.37 and 1.335 and the L-gulono-gamma-lactone oxidase [2] was 0.6365 and 0.6402 and 0.7055. The “Liver fatty acid binding protein” value [2] was 0.8038 and 0.7393 and 0.8984, the MAP kinase kinase [2] was 1.002 and 1.108 and the “Macrophage inflammatory protein-2 alpha” value [2] was 1.093 and 1.12 and 1.177. The “Matrin F/G” value [2] was 0.9519 and 0.9552 and 1.004, the “Matrix metalloproteinase-1” value [2] was 1.245 and 1.194 and 1.355 and the “Melanoma-associated antigen ME491” value [2] was 1.089 and 0.9854 and 1.045. The “Monocyte chemotactic protein receptor (CCR2)” value [2] was 1.034 and 1.086 and 1.071, the “Multidrug resistant protein-2” value [2] was 1.301 and 1.556 and 1.405 and the “N-hydroxy-2-acetylaminofluorene sulfotransferase (ST1C1)” value [2] was 0.7492 and 0.7954 and 0.8182. The “Nucleoside diphosphate kinase beta isoform” value [2] was 1.36 and 1.288 and 1.362, the “Organic anion transporter 3” value [2] was 1.251 and 1.195 and 1.053 and the “Organic cation transporter 3” value [2] was 1.211 and 1.277 and 1.36. For the same molecule, the Ornithine decarboxylase [2] was 1.262 and 1.294 and 1.161, the PAR interacting protein [2] was 1.196 and 1.432 and 1.205 and the “Phase-1 RCT 252” value [2] was 0.772 and 0.7405. For the same molecule, the “Phase-1 RCT-15” value [2] was 1, the “Phase-1 RCT-33” value [2] was 1.288 and the “Phase-1 RCT-37” value [2] was 1.101. For the same molecule, the “Phase-1 RCT-39” value [2] was 1.631 and 1.876 and 2.263, the “Phase-1 RCT-40” value [2] was 0.9657 and 1.099 and the “Phase-1 RCT-48” value [2] was 0.6407. The “Phase-1 RCT-72” value [2] was 0.9031 and 0.8598, the “Phase-1 RCT-83” value [2] was 0.7773 and the “Phase-1 RCT-88” value [2] was 0.8891. For the same molecule, the “Phase-1 RCT-89” value [2] was 0.9166, the “Phase-1 RCT-102” value [2] was 0.7133 and 0.4783 and 0.5208 and the “Phase-1 RCT-123” value [2] was 0.9384 and 1.104. The “Phase-1 RCT-137” value [2] was 0.8817, the “Phase-1 RCT-154” value [2] was 1.303 and the “Phase-1 RCT-180” value [2] was 1.296. The “Phase-1 RCT-181” value [2] was 0.9889, the “Phase-1 RCT-182” value [2] was 0.9123 and the “Phase-1 RCT-189” value [2] was 0.8764 and 0.754 and 0.6881. The “Phase-1 RCT-191” value [2] was 1.599, the “Phase-1 RCT-214” value [2] was 0.9342 and 1.408 and the “Phase-1 RCT-239” value [2] was 0.5982 and 0.595. For the same molecule, the “Phase-1 RCT-241” value [2] was 1.293, the “Phase-1 RCT-242” value [2] was 0.9855 and 0.8679 and 0.8934 and the “Phase-1 RCT-256” value [2] was 0.8602. For the same molecule, the “Phase-1 RCT-264” value [2] was 0.5789 and 0.5647 and 0.5936, the “Phase-1 RCT-270” value [2] was 0.9344 and 0.9311 and the “Phase-1 RCT-271” value [2] was 1.204 and 1.753. The “Phase-1 RCT-291” value [2] was 1.285, the “Phase-1 RCT-296” value [2] was 0.8165 and the “Proliferating cell nuclear antigen gene” value [2] was 1.007 and 0.9415 and 1.108. For the same molecule, the “Ribosomal protein L13A” value [2] was 1.209 and 1.299, the “Ribosomal protein S8” value [2] was 1.309 and 1.3 and 1.45 and the “Ribosomal protein S17” value [2] was 1.52. For the same molecule, the “Senescence marker protein-30” value [2] was 0.4601 and 0.4705 and 0.6829, the Sodium/bile acid cotransporter [2] was 2.871 and 2.806 and 2.757 and the “Superoxide dismutase Mn” value [2] was 1.266 and 1.52 and 1.416. The “Thymosin beta-10” value [2] was 0.9766 and 1.212, the Transthyretin [2] was 0.5528 and 0.5255 and 0.5896 and the “Ubiquitin conjugating enzyme (RAD 6 homologue)” value [2] was 1.202 and 1.253 and 1.239. The “Uncoupling protein 2” value [2] was 1.015 and 0.8977 and 1.15, the Zinc finger protein [2] was 0.9857 and 1.001 and 0.984 and the c-jun [2] was 0.6641 and 0.6214 and 0.6871. The c-myc [2] was 1.056 and 0.76 and 0.7591, the p53 [2] was 1.049 and 1.111 and 0.9729 and the “{Ribosomal protein L6}” value [2] was 1.301. For the same molecule, the “Paraoxonase 1” value (rat, in vivo) was 0.7914 and 0.865 and 0.7219 and 0.8315 and 0.967.
